Common to all, as to type: cell-based
Assay [1] concerns Lactobacillus salivarius ssp. salicinius strain JCM1044. The experiment in a line: activity of cholic acid uptake by Lactobacillus salivarius ssp. salicinius strain JCM1044 in the presence of an oligosaccharide. The note with it: 14C-labeled cholic acid; oligosaccharide added at 15 minutes after reaction start; control without oligosaccharide unchanged. The protocol: (§1) Lactic acid bacteria were cultured in a commercially available MRS medium overnight. The composition of the medium was as follows:
(§2) The harvested cells were washed with a buffer (pH 7.0) of 50 mM potassium phosphate containing 1 mM magnesium sulfate, and then the washed cells were re-suspended in a buffer comprising the same composition. The resulting cell suspension was allowed to stand for 30 minutes to make the cell membrane of the cells the state of deactivation. Then, the cells were harvested by centrifuging the suspension and washed with a buffer (pH 7.0) of 50 mM potassium phosphate containing 1 mM magnesium sulfate. […]
(§3) To 96 μl of the cell suspension prepared as above, 2 μl of 6 mM cholic acid solution (cholic acid (chenodeoxycholic acid) labeled with ^14C, 16 mCi/mmol) was added, and after allowing the resulting suspension to stand for 15 minutes, 0.1 μl of 0.33 M oligosaccharide solution was added thereto, and the measurement of the activity of bile acid uptake was started. After a predetermined time, the reaction was stopped by adding 3 ml of a buffer of 100 mM potassium phosphate containing 100 mM […], and then the reaction solution was filtered through a cellulose acetate membrane (pore size: 0.45 μm), and the radioactivity left on the membrane was measured by a scintillation counter. […]

Assay [2] relates to Bifidobacterium breve strain JCM1192. Briefly: activity of cholic acid uptake by Bifidobacterium breve strain JCM1192 in the presence of an oligosaccharide. Particulars: 14C-labeled cholic acid; oligosaccharide added at 15 minutes after reaction start; control without oligosaccharide unchanged. The protocol:
as §1, §2, §3

For assay [3] the test system is unchanged. The experiment in a line: activity of chenodeoxycholic acid uptake by Bifidobacterium breve strain JCM1192 in the presence of an oligosaccharide. Particulars: for chenodeoxycholic acid concentration in the cells relative to that of the outside of the cells: 14C-labeled chenodeoxycholic acid, oligosaccharide added at 15 minutes after reaction start, maximum rise. The protocol: as §1
The harvested cells were washed with a buffer (pH 7.0) of 50 mM potassium phosphate containing 1 mM magnesium sulfate, and then the washed cells were re-suspended in a buffer comprising the same composition. The resulting cell suspension was allowed to stand for 30 minutes to make the cell membrane of the cells the state of deactivation. Then, the cells were harvested by centrifuging the suspension and washed with a buffer (pH 7.0) of 50 mM potassium phosphate containing 1 mM magnesium sulfate. Thereafter, the washed cells were re-suspended in a buffer comprising the same composition, and the cell suspension was adjusted so as to have the turbidity of 10.
To 96 μl of the cell suspension prepared as above, 2 μl of 6 mM cholic acid solution (cholic acid (chenodeoxycholic acid) labeled with ^14C, 16 mCi/mmol) was added, and after allowing the resulting suspension to stand for 15 minutes, 0.1 μl of 0.33 M oligosaccharide solution was added thereto, and the measurement of the activity of bile acid uptake was started. After a predetermined time, the reaction was stopped by adding 3 ml of a buffer of 100 mM potassium phosphate containing 100 mM […], and then the reaction solution was filtered through a cellulose acetate membrane (pore size: 0.45 μm), and the radioactivity left on the membrane was measured by a scintillation counter. In addition, as a control, the radioactivity of a sample adding no oligosaccharide was measured similarly.

The test system of assay [4] is Bifidobacterium infantis strain JCM1222. Briefly: cholic acid uptake by Bifidobacterium infantis strain JCM1222 in a nystose added-cell suspension. The protocol:
as §1, §2, §3

The values that follow come from patent publication US20040208859A1, “Bile acid absorbent/adsorbent” (priority 2001, published 2004).

For `OC[C@H]1O[C@@](CO)(OC[C@@]2(O[C@H]3O[C@H](CO)[C@@H](O)[C@H](O)[C@H]3O)O[C@H](CO)[C@@H](O)[C@@H]2O)[C@@H](O)[C@@H]1O` [1-kestose], the entries for the “cholic acid concentration in the cells relative to that of the outside of the cells” value in assay [1] and in assay [2] were “about 13 times” and “about 24 times”, respectively. The “chenodeoxycholic acid concentration in the cells relative to that of the outside of the cells” value in assay [3] was “about 15 times”. Also, the “chenodeoxycholic acid concentration in the cells relative to outside at equilibrium after passive elimination” value in assay [3] (after oligosaccharide almost consumed (after 30 minutes), concentration came to equilibrium) is “about 2 times”.

`OC[C@H]1O[C@@](CO)(OC[C@@]2(OC[C@@]3(O[C@H]4O[C@H](CO)[C@@H](O)[C@H](O)[C@H]4O)O[C@H](CO)[C@@H](O)[C@@H]3O)O[C@H](CO)[C@@H](O)[C@@H]2O)[C@@H](O)[C@@H]1O` [nystose]: in assay [4], the “cholic acid incorporation into the cells” value is recorded as “cholic acid was incorporated into the cells”.

For the compound `OC[C@H]1O[C@H](OC[C@H]2O[C@H](O[C@]3(CO)O[C@H](CO)[C@@H](O)[C@@H]3O)[C@H](O)[C@@H](O)[C@@H]2O)[C@H](O)[C@@H](O)[C@H]1O` [raffinose], the entries for the “cholic acid concentration in the cells relative to that of the outside of the cells” value in assay [1] and in assay [2] were “about 8 times” and “about 30 times”, respectively. The “chenodeoxycholic acid concentration in the cells relative to that of the outside of the cells” value in assay [3] is reported as “about 6 times”.
